Results published in ChEMBL document CHEMBL1201862, “PubChem BioAssay data set” (2004).
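Compound exposure: 48 hours, 5 concentrations, 96-well plates. GI50 = concentration required for 50% inhibition of growth.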 Calls of active or inactive are those of the source. No stated cut-off is given here; in the data, active = GI50 up to about 1.1 µM and inactive = higher.

Tests used:
Experiment in all cases: NCI anticancer screen, dose series, 48 h
SR = tested on: SR
HCT-15 = tested on: HCT-15
SF-539 = tested on: SF-539
NCI-H522 = tested on: NCI-H522
TK-10 = tested on: TK-10
A549 = tested on: A549
SF-268 = tested on: SF-268
SW-620 = tested on: SW-620
NCI-H23 = tested on: NCI-H23
SK-MEL-2 = tested on: SK-MEL-2
HCT-116 = tested on: HCT-116
KM12 = tested on: KM12
U-251 = tested on: U-251
NCI-H226 = tested on: NCI-H226
SK-OV-3 = tested on: SK-OV-3
HT-29 = tested on: HT-29
LOX IMVI = tested on: LOX IMVI
HL-60 = tested on: HL-60

Measured: GI50

COC(=O)C(=O)C(C(=O)C(=O)Nc1cc(C)ccc1C)c1nc2ccc(C(=O)c3ccccc3)cc2nc1O (stereo not given)
> 100 µM: HCT-15
inactive: SR 68.5 µM | SF-539 > 100 µM | NCI-H522 36.3 µM | TK-10 > 100 µM | A549 > 100 µM | SF-268 > 100 µM | SW-620 > 100 µM | NCI-H23 > 100 µM | SK-MEL-2 > 100 µM | HCT-116 > 100 µM | KM12 71.4 µM | U-251 > 100 µM | NCI-H226 62.1 µM

NC(=S)N/N=C1/C(=O)N(c2ccc(Cl)cc2Cl)C(=O)C(=O)C1c1nc2ccccc2s1 (stereo not given)
inactive: SF-539 > 100 µM | NCI-H522 > 100 µM | TK-10 > 100 µM | SF-268 > 100 µM | SK-OV-3 > 100 µM | HT-29 > 100 µM | SW-620 > 100 µM | NCI-H23 > 100 µM | SK-MEL-2 > 100 µM | LOX IMVI > 100 µM | HCT-116 > 100 µM | KM12 > 100 µM | U-251 > 100 µM | NCI-H226 > 100 µM
> 100 µM: HCT-15

COc1cc(Cl)cc(N(O)C(C)=O)c1OCc1ccccc1
51.4 µM: HCT-15
inactive: SR 44.3 µM | SF-539 83.4 µM | NCI-H522 62.1 µM | TK-10 79.4 µM | A549 68.5 µM | SF-268 44.8 µM | SK-OV-3 74 µM | HT-29 64.6 µM | SW-620 > 100 µM | HL-60 40.7 µM | NCI-H23 > 100 µM | LOX IMVI 77.6 µM | HCT-116 75.2 µM | KM12 > 100 µM | U-251 80.4 µM | NCI-H226 65.8 µM

C[N+](C)(C)CC(=O)N/N=C(\C(=O)Nc1ccc(Cl)cc1)C1C(=O)N(c2ccccc2)N=C1N (stereo not given)
> 100 µM: HCT-15
inactive: SF-539 > 100 µM | NCI-H522 > 100 µM | TK-10 > 100 µM | A549 > 100 µM | SF-268 > 100 µM | SK-OV-3 > 100 µM | HT-29 > 100 µM | SW-620 > 100 µM | HL-60 > 100 µM | NCI-H23 > 100 µM | SK-MEL-2 > 100 µM | LOX IMVI > 100 µM | HCT-116 > 100 µM | KM12 > 100 µM | U-251 > 100 µM

N#CC(C(=O)/C(=N/NC(=O)c1ccccc1O)C(C#N)c1ccccc1)c1ccccc1 (stereo not given)
inactive: SF-539 > 100 µM | TK-10 > 100 µM | A549 > 100 µM | SF-268 > 100 µM | SK-OV-3 > 100 µM | HT-29 > 100 µM | NCI-H23 > 100 µM | SK-MEL-2 > 100 µM | LOX IMVI > 100 µM | HCT-116 > 100 µM | KM12 > 100 µM | U-251 > 100 µM | NCI-H226 > 100 µM
> 100 µM: HCT-15

O=c1[nH]cnc2c(COCCO)c[nH]c12
inactive: SR > 100 µM | SF-539 > 100 µM | NCI-H522 > 100 µM | TK-10 > 100 µM | SF-268 > 100 µM | SK-OV-3 > 100 µM | HT-29 > 100 µM | SW-620 > 100 µM | HL-60 > 100 µM | NCI-H23 > 100 µM | SK-MEL-2 > 100 µM | LOX IMVI > 100 µM | KM12 > 100 µM | U-251 > 100 µM | NCI-H226 > 100 µM
> 100 µM: HCT-15

COC(=O)C(C(=O)Cc1ccccc1[N+](=O)[O-])C(=O)OC
> 100 µM: HCT-15
inactive: SR 23.9 µM | SF-539 > 100 µM | NCI-H522 > 100 µM | TK-10 > 100 µM | A549 > 100 µM | SF-268 > 100 µM | SK-OV-3 > 100 µM | HT-29 > 100 µM | SW-620 > 100 µM | HL-60 54.5 µM | NCI-H23 > 100 µM | SK-MEL-2 > 100 µM | LOX IMVI > 100 µM | HCT-116 > 100 µM | KM12 > 100 µM | NCI-H226 > 100 µM

C=C1CC(CC(=O)C(C)CC2CC(=C)C(=O)O2)OC1=O (stereo not given)
inactive: SR 3.3 µM | SF-539 18.8 µM | TK-10 19.1 µM | A549 52 µM | SF-268 22.4 µM | SK-OV-3 > 100 µM | HT-29 26.2 µM | SW-620 11 µM | HL-60 14 µM | NCI-H23 18.8 µM | SK-MEL-2 9.35 µM | LOX IMVI 15.6 µM | HCT-116 12.1 µM | KM12 10.5 µM | U-251 71.4 µM
18.1 µM: HCT-15

CCOC(=O)c1c2ccc(/C=C/C(=O)OC)ccc-2c(C(=O)OCC)c1N
inactive: SF-539 > 100 µM | NCI-H522 > 100 µM | TK-10 > 100 µM | A549 > 100 µM | SF-268 2.11 µM | SK-OV-3 > 100 µM | HT-29 > 100 µM | SW-620 > 100 µM | HL-60 > 100 µM | NCI-H23 > 100 µM | SK-MEL-2 > 100 µM | LOX IMVI > 100 µM | KM12 > 100 µM | NCI-H226 > 100 µM
> 100 µM: HCT-15

CN(C)CC1CCC(CN(C)C)C1=NO (stereo not given)
inactive: SR 29 µM | SF-539 > 100 µM | NCI-H522 > 100 µM | TK-10 > 100 µM | A549 > 100 µM | SF-268 > 100 µM | HT-29 > 100 µM | SW-620 > 100 µM | LOX IMVI > 100 µM | HCT-116 > 100 µM
> 100 µM: HCT-15

NC(=S)N/N=C/C(=C/Nc1ccccc1)[N+](=O)[O-]
inactive: SF-539 > 100 µM | NCI-H522 > 100 µM | TK-10 > 100 µM | A549 > 100 µM | SF-268 > 100 µM | SK-OV-3 > 100 µM | HT-29 > 100 µM | SW-620 > 100 µM | HL-60 > 100 µM | NCI-H23 > 100 µM | SK-MEL-2 > 100 µM | LOX IMVI > 100 µM | HCT-116 > 100 µM | NCI-H226 53 µM
> 100 µM: HCT-15

O=C(Nc1cc(Cl)cc(Cl)c1)/C(Cc1nc2ccccc2nc1O)=N/NC(=O)c1ccncc1
inactive: SF-539 > 100 µM | TK-10 > 100 µM | A549 > 100 µM | SK-OV-3 > 100 µM | SW-620 > 100 µM | HL-60 > 100 µM | SK-MEL-2 > 100 µM | LOX IMVI > 100 µM | HCT-116 > 100 µM | KM12 > 100 µM | U-251 > 100 µM
> 100 µM: HCT-15

c1cncc(C2c3[nH]c4ccccc4c3CCN2CCCN2CCCCC2)c1 (stereo not given)
inactive: SR > 100 µM | SF-539 > 100 µM | NCI-H522 > 100 µM | TK-10 > 100 µM | A549 > 100 µM | SK-OV-3 > 100 µM | HT-29 > 100 µM | SW-620 > 100 µM | HL-60 > 100 µM | NCI-H23 > 100 µM | SK-MEL-2 > 100 µM | LOX IMVI > 100 µM | HCT-116 > 100 µM | KM12 > 100 µM | U-251 > 100 µM | NCI-H226 > 100 µM
> 100 µM: HCT-15
